According to patent US20240425478A1, “CYCLOPENTYLPYRAZOLE CDK2 INHIBITORS” (Genentech, Inc., priority 2021, published 2024):
Where two headings read alike, the source gives them in different places.

Legend:
[1] = molecular target: T1, Cyclin Dependent Kinase 1/Cyclin A2 (CDK1-cycA2) (Homo sapiens, UniProt P06493); experiment: CDK1-cycA2 TR-FRET (Lance) enzyme assay; assay type: biochemical; settings: for Ki: Table O, enzymatic assay; for FS CDK1/CDK2: fold selectivity, enzymatic Ki ratio
T1 construct: purchased ProQinase 0134-0054-1
T1 sequence (P06493 whole entry): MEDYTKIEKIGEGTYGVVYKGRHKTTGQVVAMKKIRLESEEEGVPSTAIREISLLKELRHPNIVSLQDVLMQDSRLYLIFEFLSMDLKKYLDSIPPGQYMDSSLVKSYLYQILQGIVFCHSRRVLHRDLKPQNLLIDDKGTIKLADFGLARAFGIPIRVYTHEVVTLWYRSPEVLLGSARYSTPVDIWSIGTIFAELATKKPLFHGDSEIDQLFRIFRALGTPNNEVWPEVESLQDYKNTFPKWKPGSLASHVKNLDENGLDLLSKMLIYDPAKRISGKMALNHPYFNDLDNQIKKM
T1 sequence (P20248 whole entry partner): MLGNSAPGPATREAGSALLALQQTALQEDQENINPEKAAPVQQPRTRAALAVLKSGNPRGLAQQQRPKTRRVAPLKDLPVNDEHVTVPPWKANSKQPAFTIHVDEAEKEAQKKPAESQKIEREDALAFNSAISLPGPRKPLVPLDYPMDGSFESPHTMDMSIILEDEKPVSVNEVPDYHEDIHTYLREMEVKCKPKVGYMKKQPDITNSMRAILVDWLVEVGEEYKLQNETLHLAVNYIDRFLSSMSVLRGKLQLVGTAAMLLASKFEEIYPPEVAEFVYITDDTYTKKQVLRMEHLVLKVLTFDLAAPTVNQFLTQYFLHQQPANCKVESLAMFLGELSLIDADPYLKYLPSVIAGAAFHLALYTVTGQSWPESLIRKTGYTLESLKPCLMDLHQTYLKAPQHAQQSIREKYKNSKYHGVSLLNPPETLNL
Procedure: (§1) Cyclin Dependent Kinase 1/Cyclin A2 (CDK1-cycA2), Cyclin Dependent Kinase 2/Cyclin E1 (CDK2-cycE1), Cyclin Dependent Kinase 4/Cyclin D3 (CDK4-cycD3) and Cyclin Dependent Kinase 6/Cyclin D3 (CDK6-cycD3) enzyme assays were carried out as described below.
(1) CDK1-cycA2 TR-FRET (Lance®)
(§2) An Echo acoustic dispenser is used to create dose responses of compound dissolved in DMSO into a 384-well microplate. A 5 μL volume of enzyme mix is added to the well, and pre-incubated with compound for 30 minutes. […] Buffer conditions are 50 mM HEPES, pH 7.5, 10 mM MgCl2, 2 mM TCEP, 0.05% BGG and 0.01% Brij 35. The reaction is quenched with 5 μL of EDTA in detection buffer (15 mM [EDTA final]). Finally, a 5 μL TR-FRET detection mix is added to the quenched reaction, which includes Europium labeled anti-phospho-4E-BP1. […] Signal is a ratio of the Acceptor and Donor fluorescence. Inhibition constants are calculated via the Morrison equation.

[2] = molecular target: T2, Cyclin Dependent Kinase 2/Cyclin E1 (CDK2-cycE1) (Homo sapiens, UniProt P24941); experiment: CDK2-cycE1 TR-FRET (LANCE) enzyme assay; assay type: biochemical; settings: for Ki: enzymatic assay, read-out: CDK2 Ki; for FS CDK1/CDK2 / FS CDK4/CDK2: fold selectivity; for increased fold-selectivity CDK4/CDK2 over Comparator C: (+) sign after FS CDK4/CDK2;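 on improvement in potency against CDK2 (Ki) over Comparator C: fold lower CDK2 Ki than comparator c (Ki 0.032 µM)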
T2 construct: purchased ProQinase 0050-0055-1
Procedure: as §1
(ii) CDK2-cycE1 TR-FRET (LANCE®)
as §2, with “anti-phospho-MBP.” for “anti-phospho-4E-BP1.”, “equation. Enzyme source of CDK2-cycE1 is ProQinase, catalog #: 0050-0055-1.” for “equation.”

[3] = molecular target: T3, Cyclin Dependent Kinase 4/Cyclin D3 (CDK4-cycD3) (Homo sapiens, UniProt P11802); experiment: CDK4-cycD3 TR-FRET (LANCE) enzyme assay; assay type: biochemical; settings: for Ki: Table O, enzymatic assay; for FS CDK4/CDK2: fold selectivity, enzymatic Ki ratio
T3 construct: purchased Carna Biosciences 04-105
T3 sequence (P11802 whole entry): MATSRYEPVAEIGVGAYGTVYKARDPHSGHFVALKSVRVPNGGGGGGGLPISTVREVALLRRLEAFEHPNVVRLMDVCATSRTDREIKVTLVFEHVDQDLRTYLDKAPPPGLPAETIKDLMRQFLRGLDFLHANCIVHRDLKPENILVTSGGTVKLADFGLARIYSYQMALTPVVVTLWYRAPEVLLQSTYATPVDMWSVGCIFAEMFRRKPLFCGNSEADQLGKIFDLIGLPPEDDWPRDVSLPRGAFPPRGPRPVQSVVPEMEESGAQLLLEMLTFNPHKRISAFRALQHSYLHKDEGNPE
T3 sequence (P30281 whole entry partner): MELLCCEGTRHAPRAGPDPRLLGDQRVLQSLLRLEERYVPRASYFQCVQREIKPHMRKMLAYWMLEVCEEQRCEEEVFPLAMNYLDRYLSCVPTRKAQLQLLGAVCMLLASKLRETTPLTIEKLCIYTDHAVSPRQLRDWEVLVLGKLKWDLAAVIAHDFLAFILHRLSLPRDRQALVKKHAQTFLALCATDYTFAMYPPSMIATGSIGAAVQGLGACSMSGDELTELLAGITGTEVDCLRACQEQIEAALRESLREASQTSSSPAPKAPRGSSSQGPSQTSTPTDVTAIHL
Procedure: as §1
(iii) CDK4-cycD3 TR-FRET (LANCE®)
as §2

[4] = system: OVISE (JCRB1043, CCNE1-amplified); experiment: OVISE EdU incorporation cell proliferation assay (CDK2-dependent); assay type: cell-based; settings: for IC50: cellular assay, read-out: CDK2 OVISE IC50; for FS SKOV-3/OVISE: fold selectivity; for improvement in CDK2 OVISE cell potency over Comparator C: Comparator C 5.5 μM
Procedure: (§3) (i) OVISE and SKOV-3 EdU Incorporation Cell Proliferation Assays
(§4) Ovarian cancer cell proliferation is measured by incorporation of EdU (5-ethynyl-2′-deoxyuridine) into newly synthesized DNA. CDK2-dependent proliferation is determined using OVISE (JCRB1043, CCNE1-amplified) while CDK4/6-dependent effect is determined with SKOV-3 (ATCC HTB-77) which is not CCNE1-amplified.
(§5) Cells are plated in 384-well plates in RPMI medium supplemented with 10% FBS. Compounds are added at desired concentrations with a final DMSO content of 0.5%, and cells incubated at 37° C./5% CO2 for 16 hours. EdU (Life Technologies) is added to a final concentration of 0.5 μM and incubation continued for 8 hours, followed by fixation with 4% paraformaldehyde. […] Images are acquired using Yokogawa CQ1 imaging cytometer with a 10×objective. […] The IC50 for inhibition of cell division is determined by fitting the fraction of EdU-positive cells as a function of compound dose using a 4-parameter logistic model.

SKOV-3 (ATCC HTB-77) = experiment: SKOV-3 EdU incorporation cell proliferation assay (CDK4/6-dependent); assay type: cell-based; settings: for IC50: Homo sapiens, cellular assay, read-out: CDK4/6 SKOV-3 IC50; for FS SKOV-3/OVISE: fold selectivity, cellular IC50 ratio
Procedure: as §3, §4, §5

[5] = Table O, enzymatic CDK1 Ki over CDK2 Ki
[6] = Table O, enzymatic CDK4 Ki over CDK2 Ki
[7] = Table O, cellular SKOV-3 IC50 over OVISE IC50
[8] = Table Q, in brackets after OVISE IC50

| Compound | Ki [1] [nM] | Ki ([2]; Table O) [nM] | FS CDK1/CDK2 [2, 5] | FS CDK4/CDK2 [2, 6] | Ki [3] [nM] | IC50 ([4]; Table O) [nM] | FS SKOV-3/OVISE [4, 7] | IC50 (SKOV-3 (ATCC HTB-77); SK-OV-3, Table O) [nM] | improvement in potency against CDK2 (Ki) over Comparator C [2] [fold] | increased fold-selectivity CDK4/CDK2 over Comparator C ([2]; Table Q) | Ki ([2]; Table Q) [nM] | FS CDK1/CDK2 ([2]; Table Q, enzymatic) | FS CDK4/CDK2 ([2]; Table Q, enzymatic) | FS SKOV-3/OVISE ([4]; Table Q, cellular) | improvement in CDK2 OVISE cell potency over Comparator C [4, 8] [fold] | IC50 (SKOV-3 (ATCC HTB-77); SK-OV-3, Table Q) [nM] | other results |
| --- | --- | --- | --- | --- | --- | --- | --- | --- | --- | --- | --- | --- | --- | --- | --- | --- | --- |
| Cc1cc(=O)n(C)nc1Nc1cc([C@H]2CC[C@@H](OC(=O)NC(C)(C)C)C2)[nH]n1 [Example 4C, (1R,3S)-3-(3-((1,4-dimethyl-6-oxo-1,6-dihydropyridazin-3-yl)amino)-1H-pyrazol-5-yl)cyclopentyl tert-butylcarbamate] | 65 | 2.1 | 31 | 280 | 580 | 600 | 32 | 19000 |  |  |  |  |  |  |  |  | FS CDK1/CDK2 increased over Comparator D, (+) sign ([1]; Table R): (+); FS CDK1/CDK2 ([1]; Table R): 31; FS CDK1/CDK2 ([1]; Table S): 31; Ki ([2]; Table R): 2.1 nM; CDK2 Ki fold change in potency versus Comparator D ([2]; Table R, in brackets after CDK2 Ki): 1.3 fold; Ki ([2]; Table S): 2.1 nM; CDK2 Ki fold change in potency versus Comparator E ([2]; Table S, in brackets after CDK2 Ki): 0.3 fold; FS CDK4/CDK2 increased over Comparator D, (+) sign ([3]; Table R): (+); FS CDK4/CDK2 ([3]; Table R): 280; FS CDK4/CDK2 increased over Comparator E, (+) sign ([3]; Table S): (+); FS CDK4/CDK2 ([3]; Table S): 280; CDK2 OVISE IC50 fold change in potency versus Comparator D ([4]; Table R, in brackets after OVISE IC50): 6 fold; CDK2 OVISE IC50 fold change in potency versus Comparator E ([4]; Table S, in brackets after OVISE IC50): 0.3 fold; selectivity for CDK2 over CDK4 compared with Comparator E (SKOV-3 (ATCC HTB-77); SKOV-3/OVISE fold-selectivity cellular assay data): increase in selectivity for CDK2 over CDK4; FS SKOV-3/OVISE increased over Comparator D, (+) sign (SKOV-3 (ATCC HTB-77); Table R): (+); FS SKOV-3/OVISE (SKOV-3 (ATCC HTB-77); Table R): 32; FS SKOV-3/OVISE increased over Comparator E, (+) sign (SKOV-3 (ATCC HTB-77); Table S): (+); FS SKOV-3/OVISE (SKOV-3 (ATCC HTB-77); Table S): 32 |
| COc1ccc(Nc2cc([C@H]3CC[C@@H](OC(=O)NC(C)C)C3)[nH]n2)nn1 [Example 2JJ, (1R,3S)-3-(3-((6-methoxypyridazin-3-yl)amino)-1H-pyrazol-5-yl)cyclopentyl isopropylcarbamate] | 1200 | 77 | 16 | 16 | 1200 | 4100 | <1 | 3.2 |  |  |  |  |  |  |  |  |  |
| CC(C)NC(=O)O[C@@H]1CC[C@H](c2cc(Nc3ccc(-n4ccnc4)nc3)n[nH]2)C1 [Example 2J, (1R,3S)-3-(3-((6-(1H-imidazol-1-yl)pyridin-3-yl)amino)-1H-pyrazol-5-yl)cyclopentyl isopropylcarbamate] | 200 | 10 | 20 | 23 | 230 | 440 | 25 | 11000 |  |  |  |  |  |  |  |  |  |
| CC(C)NC(=O)O[C@@H]1CC[C@H](c2cc(Nc3cncc(N(C)C)n3)n[nH]2)C1 [Example 2P, (1R,3S)-3-(3-((6-(dimethylamino)pyrazin-2-yl)amino)-1H-pyrazol-5-yl)cyclopentyl isopropylcarbamate] | 33 | 4.2 | 7.9 | 43 | 180 | 370 | 14 | 5300 | 8 | (+) (The (+) sign in Table Q signifies desirable increased fold-selectivity of the exemplary compounds over Comparator C) | 4.2 | 7.9 | 43 | 14 | 14.9 | 5300 | increased fold-selectivity SKOV-3/OVISE over Comparator C ([4]; Table Q, (+) sign after FS SKOV-3/OVISE): (+) (The (+) sign in Table Q signifies desirable increased fold-selectivity of the exemplary compounds over Comparator C) |
| COc1nc(C)ncc1Nc1cc([C@H]2CC[C@@H](OC(=O)NC(C)C)C2)[nH]n1 [Example 2Y, (1R,3S)-3-(3-((4-methoxy-2-methylpyrimidin-5-yl)amino)-1H-pyrazol-5-yl)cyclopentyl isopropylcarbamate] | 7500 | 210 | 36 | 230 | 49000 | 16000 | >1.3 | > 20000 | 0.15 | (+) (The (+) sign in Table Q signifies desirable increased fold-selectivity of the exemplary compounds over Comparator C) | 210 | 36 | 230 | >1.3 | 0.18 | > 20000 |  |
